Measurements published in ChEMBL document CHEMBL3751668, “A Pyrazolo[3,4-d]pyrimidin-4-amine Derivative Containing an Isoxazole Moiety Is a Selective and Potent Inhibitor of RET Gatekeeper Mutants” (J Med Chem, 2016).

Key:
[1] = Cytotoxicity against mouse BAF3 cells after 48 hrs by MTT assay; format: cell-based
[2] = Cytotoxicity against human Nthy-ori 3-1 cells after 10 days by MTT assay; format: cell-based
[3] = molecular target: T1, Proto-oncogene tyrosine-protein kinase receptor Ret (Homo sapiens, UniProt P07949); test: Inhibition of human wild type RET by radiometric assay in presence of [gamma-33P]-ATP
T1 sequence (P07949 whole entry): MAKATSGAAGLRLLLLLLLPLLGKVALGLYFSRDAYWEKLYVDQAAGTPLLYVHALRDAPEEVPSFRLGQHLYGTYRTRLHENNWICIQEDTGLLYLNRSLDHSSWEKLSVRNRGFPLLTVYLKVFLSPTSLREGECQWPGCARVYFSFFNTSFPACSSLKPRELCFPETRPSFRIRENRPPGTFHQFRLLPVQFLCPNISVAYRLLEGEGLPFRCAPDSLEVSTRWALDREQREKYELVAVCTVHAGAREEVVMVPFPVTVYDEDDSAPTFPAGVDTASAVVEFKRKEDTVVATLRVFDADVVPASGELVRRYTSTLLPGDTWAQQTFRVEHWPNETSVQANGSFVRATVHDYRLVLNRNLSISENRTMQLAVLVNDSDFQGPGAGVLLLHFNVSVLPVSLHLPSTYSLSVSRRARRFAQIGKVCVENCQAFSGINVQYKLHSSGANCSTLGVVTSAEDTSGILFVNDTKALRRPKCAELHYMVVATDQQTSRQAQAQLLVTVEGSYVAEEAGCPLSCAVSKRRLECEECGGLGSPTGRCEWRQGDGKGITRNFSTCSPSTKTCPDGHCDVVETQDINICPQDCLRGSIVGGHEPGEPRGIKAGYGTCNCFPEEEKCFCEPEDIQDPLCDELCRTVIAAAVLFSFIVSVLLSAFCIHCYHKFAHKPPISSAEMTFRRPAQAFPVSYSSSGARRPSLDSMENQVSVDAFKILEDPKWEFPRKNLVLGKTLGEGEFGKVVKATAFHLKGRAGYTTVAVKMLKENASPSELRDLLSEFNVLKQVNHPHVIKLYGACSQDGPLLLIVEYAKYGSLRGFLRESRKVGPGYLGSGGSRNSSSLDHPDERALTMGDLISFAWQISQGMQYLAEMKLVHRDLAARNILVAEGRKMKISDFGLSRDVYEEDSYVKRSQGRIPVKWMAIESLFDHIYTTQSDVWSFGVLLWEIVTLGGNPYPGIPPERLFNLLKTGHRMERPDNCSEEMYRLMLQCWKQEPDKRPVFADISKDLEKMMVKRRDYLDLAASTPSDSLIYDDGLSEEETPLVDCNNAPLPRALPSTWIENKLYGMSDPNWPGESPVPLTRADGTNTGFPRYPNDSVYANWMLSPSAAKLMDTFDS

[4] = molecular target: Proto-oncogene tyrosine-protein kinase receptor Ret (Homo sapiens, UniProt P07949, V804M); test: Inhibition of human Ret V804M mutant by radiometric assay in presence of [gamma-33P]-ATP
Proto-oncogene tyrosine-protein kinase receptor Ret (Homo sapiens, UniProt P07949, V804M), sequence (P07949 29-1114 V804M limits assumed): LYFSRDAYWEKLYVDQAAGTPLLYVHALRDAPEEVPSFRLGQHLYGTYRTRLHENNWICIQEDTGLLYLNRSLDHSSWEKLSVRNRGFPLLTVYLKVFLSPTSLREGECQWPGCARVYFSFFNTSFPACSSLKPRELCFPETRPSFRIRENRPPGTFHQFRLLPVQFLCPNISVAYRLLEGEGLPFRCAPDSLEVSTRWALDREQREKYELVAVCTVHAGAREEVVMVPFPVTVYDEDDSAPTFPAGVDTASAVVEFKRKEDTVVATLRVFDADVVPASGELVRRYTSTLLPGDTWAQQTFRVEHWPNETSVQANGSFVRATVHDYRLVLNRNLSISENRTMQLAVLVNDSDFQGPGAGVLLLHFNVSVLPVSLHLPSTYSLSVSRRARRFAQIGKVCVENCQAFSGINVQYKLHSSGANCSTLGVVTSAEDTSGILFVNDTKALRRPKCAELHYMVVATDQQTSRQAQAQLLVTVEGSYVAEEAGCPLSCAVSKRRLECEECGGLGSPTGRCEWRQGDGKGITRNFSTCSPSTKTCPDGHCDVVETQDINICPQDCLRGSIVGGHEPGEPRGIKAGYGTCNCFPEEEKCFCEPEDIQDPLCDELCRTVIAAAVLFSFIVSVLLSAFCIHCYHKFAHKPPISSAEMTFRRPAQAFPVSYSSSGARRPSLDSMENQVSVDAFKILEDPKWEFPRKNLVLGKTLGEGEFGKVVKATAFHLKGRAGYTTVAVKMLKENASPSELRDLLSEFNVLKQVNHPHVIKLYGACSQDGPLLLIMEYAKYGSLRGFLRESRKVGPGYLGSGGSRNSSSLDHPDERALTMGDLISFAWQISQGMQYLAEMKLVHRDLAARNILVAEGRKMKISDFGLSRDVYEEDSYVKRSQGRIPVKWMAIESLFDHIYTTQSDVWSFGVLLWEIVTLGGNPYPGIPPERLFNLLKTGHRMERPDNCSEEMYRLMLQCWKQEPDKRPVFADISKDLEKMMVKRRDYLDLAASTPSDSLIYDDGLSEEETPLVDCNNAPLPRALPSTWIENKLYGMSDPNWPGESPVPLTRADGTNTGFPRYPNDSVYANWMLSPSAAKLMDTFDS

[5] = test system: Proto-oncogene tyrosine-protein kinase receptor Ret (Homo sapiens), P07949 [V804M]; details: BaF3
Proto-oncogene tyrosine-protein kinase receptor Ret (Homo sapiens), P07949 [V804M], sequence (P07949 whole entry V804M): as the sequence (P07949 whole entry) above, with V804M counted along it

[6] = molecular target: T1, Proto-oncogene tyrosine-protein kinase receptor Ret; details: BaF3
Description: Inhibition of wild type TEL-fused RET (unknown origin) expressed in mouse BA/F3 cells assessed as cell growth inhibition after 48 hrs by MTT assay

[7] = test system: Proto-oncogene tyrosine-protein kinase receptor Ret (Homo sapiens), P07949 [C634W]; details: TT
Proto-oncogene tyrosine-protein kinase receptor Ret (Homo sapiens), P07949 [C634W], sequence (P07949 whole entry C634W): as the sequence (P07949 whole entry) above, with C634W counted along it
Description: Inhibition of RET C634W mutant in human TT cells assessed as cell growth inhibition after 10 days by MTT assay

| Structure (SMILES) | IC50 [3] [nM] | IC50 [4] [nM] | GI50 [5] [µM] | GI50 [6] [nM] | GI50 [7] [µM] | GI50 at 48 h [1] [µM] | GI50 at 240 h [2] [µM] |
| --- | --- | --- | --- | --- | --- | --- | --- |
| CC(C)n1nc(-c2ccon2)c2c(N)ncnc21 | 213 | 903 | 8.94 | 3210 | 7.92 | > 10 | 18.6 |
| CC(C)n1nc(-c2cc(-c3ccccn3)on2)c2c(N)ncnc21 | 910 | 5880 | 0.7 | 1110 | 9.26 | 5.3 | 1.63 |
| CC(C)c1cc(-c2nn(C(C)C)c3ncnc(N)c23)no1 | 41 | 355 | 5.9 | 2400 | 5.13 | > 10 | 23.7 |
| CCc1cc(-c2nn(C(C)C)c3ncnc(N)c23)no1 | 41 | 531 | 5.77 | 1560 | 2.61 | > 10 | 28.6 |
| Nc1ncnc2c1c(-c1cc(C3CC3)on1)nn2C1CCOCC1 | 5 | 41 | 1.93 | 440 | 0.94 | > 10 | 32.9 |
| CC(C)n1nc(/C=N/O)c2c(N)ncnc21 | 4900 | 3680 | > 10 | > 10000 | > 10 | > 10 | 107 |
| CC(C)n1nc(-c2cc(-c3ccc(F)cc3)on2)c2c(N)ncnc21 | 150 | – | > 10 | > 10000 | > 10 | > 10 | 9.77 |

Continued, in another order:

| IC50 [3] [nM] | IC50 [4] [nM] | GI50 [5] [µM] | GI50 [6] [nM] | GI50 [7] [µM] | Structure (SMILES) | GI50 at 48 h [1] [µM] | GI50 at 240 h [2] [µM] |
| --- | --- | --- | --- | --- | --- | --- | --- |
| 241 | 1570 | > 10 | 7120 | > 10 | CC(C)n1nc(-c2cc(C3CCCC3)on2)c2c(N)ncnc21 | > 10 | 11.5 |
| 583 | 5680 | > 10 | 6240 | > 10 | CC(C)n1nc(C2=NOC(c3ccccc3)C2)c2c(N)ncnc21 (stereo unspecified) | > 10 | 18.9 |
| 52 | 354 | > 10 | 5340 | > 10 | Nc1ncnc2[nH]nc(-c3cc(C4CC4)on3)c12 | > 10 | 0.51 |
| 27 | 182 | 5.56 | 2670 | 3.51 | Cn1nc(-c2cc(C3CC3)on2)c2c(N)ncnc21 | > 10 | 28.7 |
